Data taken from PubChem BioAssay (NCI).
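Results reflect a 48-hour exposure of cells in 96-well plates to compound at five concentrations. GI50: concentration for 50% inhibition of growth. The concentration for full growth arrest is given as TGI.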

Columns and labels:
Test in all cases: NCI tumour cell line growth inhibition, 48 h
[1] = tested on: 786-0 renal
[2] = tested on: A498 renal
[3] = tested on: A549 NSCLC
[4] = tested on: ACHN renal
[5] = tested on: BT-549 breast
[6] = tested on: CAKI-1 renal
[7] = tested on: COLO 205 colon
[8] = tested on: DU-145 prostate
[9] = tested on: EKVX NSCLC
[10] = tested on: HCC-2998 colon
[11] = tested on: HCT-116 colon
[12] = tested on: HCT-15 colon
[13] = tested on: HL-60(TB) leukemia
[14] = tested on: HOP-62 NSCLC
[15] = tested on: HOP-92 NSCLC
[16] = tested on: HS 578T breast
[17] = tested on: HT29 colon
[18] = tested on: IGROV1 ovarian
[19] = tested on: K-562 leukemia
[20] = tested on: KM12 colon
[21] = tested on: M14 melanoma
[22] = tested on: MALME-3M melanoma
[23] = tested on: MCF7 breast
[24] = tested on: MDA-MB-231 breast
[25] = tested on: MDA-MB-435
[26] = tested on: MOLT-4 leukemia
[27] = tested on: NCI-H226 lung
[28] = tested on: NCI-H23 lung
[29] = tested on: NCI-H460 lung
[30] = tested on: NCI-H522 lung
[31] = tested on: NCI/ADR-RES ovarian
[32] = tested on: OVCAR-3 ovarian
[33] = tested on: OVCAR-4 ovarian
[34] = tested on: OVCAR-5 ovarian
[35] = tested on: OVCAR-8 ovarian
[36] = tested on: PC-3 prostate
[37] = tested on: RPMI-8226 leukemia
[38] = tested on: SF-268 CNS
[39] = tested on: SF-295 CNS
[40] = tested on: SF-539 CNS
[41] = tested on: SK-MEL-2 melanoma
[42] = tested on: SK-MEL-28 melanoma
[43] = tested on: SK-MEL-5 melanoma
[44] = tested on: SK-OV-3 ovarian
[45] = tested on: SN12C renal
[46] = tested on: SNB-19 CNS
[47] = tested on: SNB-75 CNS
[48] = tested on: SR leukemia
[49] = tested on: SW-620 colon
[50] = tested on: T-47D breast
[51] = tested on: TK-10 renal
[52] = tested on: U251 CNS
[53] = tested on: UACC-257 melanoma
[54] = tested on: UACC-62 melanoma

COc1cc(/C=C\c2cc(/C=C\c3ccc(O)c(OC)c3)n(C(=O)Nc3ccc(C(F)(F)F)cc3)n2)ccc1O gave a GI50 [1] of 2.42 µM, a TGI [1] of 7.52 µM and a GI50 [2] of 5.81 µM. For the same compound, the TGI [2] was 20.6 µM, the GI50 [3] was 4.11 µM and the TGI [3] was > 100 µM. For the same compound, the GI50 [4] was 2.48 µM, the TGI [4] was 7.08 µM and the GI50 [5] was 1.96 µM. It also gave a TGI [5] of 3.67 µM, a GI50 [6] of 3.02 µM and a TGI [6] of 12.7 µM. For the same compound, the GI50 [7] was 2.05 µM, the TGI [7] was 4.5 µM and the GI50 [8] was 3.67 µM. The TGI [8] was 13 µM, the GI50 [9] was 3.22 µM and the TGI [9] was 38.4 µM. For the same compound, the GI50 [10] was 2.04 µM, the TGI [10] was 3.82 µM and the GI50 [11] was 1.51 µM. The TGI [11] was 2.94 µM, the GI50 [12] was 2.69 µM and the TGI [12] was 9.63 µM. The GI50 [13] was 1.98 µM, the TGI [13] was 6.45 µM and the GI50 [14] was 3.6 µM. The TGI [14] was 16.2 µM, the GI50 [15] was 2.35 µM and the TGI [15] was 6.79 µM. It also gave a GI50 [16] of 5.1 µM, a TGI [16] of 60.6 µM and a GI50 [17] of 2.02 µM. It also gave a TGI [17] of 4.13 µM, a GI50 [18] of 2.77 µM and a TGI [18] of 11.6 µM. For the same compound, the GI50 [19] was 2.53 µM, the TGI [19] was > 100 µM and the GI50 [20] was 2.33 µM. For the same compound, the TGI [20] was 5.59 µM, the GI50 [21] was 1.94 µM and the TGI [21] was 4.08 µM. It also gave a GI50 [22] of 2.89 µM, a TGI [22] of 8.4 µM and a GI50 [23] of 1.97 µM. For the same compound, the TGI [23] was 10.7 µM, the GI50 [24] was 3.06 µM and the TGI [24] was 9.62 µM. For the same compound, the GI50 [25] was 2.35 µM, the TGI [25] was 7.06 µM and the GI50 [26] was 2.73 µM. It also gave a TGI [26] of 20 µM, a GI50 [27] of 7.29 µM and a TGI [27] of 27.6 µM. It also gave a GI50 [28] of 2.13 µM, a TGI [28] of 6.48 µM and a GI50 [29] of 3.22 µM. The TGI [29] was 9.95 µM, the GI50 [30] was 1.78 µM and the TGI [30] was 4.65 µM. For the same compound, the GI50 [31] was 3.51 µM, the TGI [31] was > 100 µM and the GI50 [32] was 3.41 µM. The TGI [32] was 26.7 µM, the GI50 [33] was 3.51 µM and the TGI [33] was 52.7 µM. It also gave a GI50 [34] of 2.16 µM, a TGI [34] of 4.97 µM and a GI50 [35] of 3.33 µM. For the same compound, the TGI [35] was > 100 µM, the GI50 [36] was 3.21 µM and the TGI [36] was 13.5 µM. For the same compound, the GI50 [37] was 2.09 µM, the TGI [37] was 6.59 µM and the GI50 [38] was 2.8 µM. For the same compound, the TGI [38] was 15.4 µM, the GI50 [39] was 2.89 µM and the TGI [39] was 9.85 µM. The GI50 [40] was 2.37 µM, the TGI [40] was 7.45 µM and the GI50 [41] was 3.15 µM. For the same compound, the TGI [41] was 17.3 µM, the GI50 [42] was 2.19 µM and the TGI [42] was 5.9 µM. It also gave a GI50 [43] of 2.27 µM, a TGI [43] of 6.89 µM and a GI50 [44] of 4.02 µM. The TGI [44] was 66.7 µM, the GI50 [45] was 2.73 µM and the TGI [45] was 9.9 µM. It also gave a GI50 [46] of 3.16 µM, a TGI [46] of 11.2 µM and a GI50 [47] of 2.99 µM. For the same compound, the TGI [47] was 66 µM, the GI50 [48] was 1.48 µM and the TGI [48] was > 100 µM. The GI50 [49] was 2.56 µM, the TGI [49] was 5.9 µM and the GI50 [50] was 2.81 µM. The TGI [50] was 39 µM, the GI50 [51] was 4.13 µM and the TGI [51] was 14.8 µM. It also gave a GI50 [52] of 2.49 µM, a TGI [52] of 6.86 µM and a GI50 [53] of 4.01 µM. The TGI [53] was 14 µM, the GI50 [54] was 2.02 µM and the TGI [54] was 4.76 µM.
